Measured values taken from ChEMBL document CHEMBL1201862, “PubChem BioAssay data set” (2004).
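Tested at 5 concentrations; 48 h exposure; 96-well plates; endpoints linearly interpolated, else capped at highest concentration. GI50 is the concentration that inhibits growth by half.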 The source made the active and inactive calls. No stated cut-off is given here; in the data, active = GI50 up to about 1.1 µM and inactive = higher.

Experiments:
Experiment in all cases: NCI anticancer screen, dose series, 48 h
[1] = test system: SF-295
[2] = test system: SF-268
[3] = test system: MDA-N
[4] = test system: MDA-MB-231
[5] = test system: 786-0
[6] = test system: UACC-257
[7] = test system: RXF 393
[8] = test system: A549
[9] = test system: NCI/ADR-RES
[10] = test system: SK-MEL-2
[11] = test system: A498
[12] = test system: CCRF-CEM
[13] = test system: BT-549
[14] = test system: NCI-H522
[15] = test system: T47D
[16] = test system: IGROV-1
[17] = test system: SR
[18] = test system: HOP-92

| SMILES | GI50 [1] | GI50 [2] | GI50 [3] | GI50 [4] | GI50 [5] | GI50 [6] | GI50 [7] | GI50 [8] | GI50 [9] | GI50 [10] | GI50 [11] | GI50 [12] | GI50 [13] | GI50 [14] | GI50 [15] | GI50 [16] | GI50 [17] | GI50 [18] |
| --- | --- | --- | --- | --- | --- | --- | --- | --- | --- | --- | --- | --- | --- | --- | --- | --- | --- | --- |
| Cc1ccnc(NC(=S)Nc2ccccc2Cl)c1 | 87.7 µM (inactive) | 33.6 µM (inactive) | > 100 µM (inactive) | 2.23 µM (inactive) | > 100 µM (inactive) | > 100 µM (inactive) | > 100 µM (inactive) | > 100 µM (inactive) | > 100 µM (inactive) | > 100 µM (inactive) | > 100 µM (inactive) | > 100 µM (inactive) | > 100 µM (inactive) | 0.131 µM (active) | > 100 µM (inactive) | 61.2 µM (inactive) | > 100 µM (inactive) |  |
| O=C1OC(c2ccco2)=N/C1=C\c1ccc(Cl)c(Cl)c1 | > 100 µM (inactive) | 59.6 µM (inactive) | > 100 µM (inactive) | > 100 µM (inactive) | 38 µM (inactive) | > 100 µM (inactive) | 22 µM (inactive) | 62.1 µM (inactive) |  | > 100 µM (inactive) | > 100 µM (inactive) | > 100 µM (inactive) | > 100 µM (inactive) | 51.4 µM (inactive) | 40.9 µM (inactive) | > 100 µM (inactive) | > 100 µM (inactive) | > 100 µM (inactive) |
| CC[C@@H]1CC[C@@H]2[C@H](CC[C@]3(C)[C@@H](OC(C)=O)CC[C@@H]23)[C@H]1COC(C)=O | 25.2 µM (inactive) | 21.6 µM (inactive) | 24.9 µM (inactive) | 20 µM (inactive) | 45.1 µM (inactive) | 29.5 µM (inactive) | 22.6 µM (inactive) | 22.1 µM (inactive) | 26.7 µM (inactive) | 16.4 µM (inactive) | 26 µM (inactive) | 20 µM (inactive) | 32.1 µM (inactive) | 23.1 µM (inactive) | 32.1 µM (inactive) | 32.7 µM (inactive) |  | 29 µM (inactive) |
| NC(CCCCCP(=O)(c1ccccc1)C1C=CC=CC1)C(=O)O (configuration not stated) | > 100 µM (inactive) | > 100 µM (inactive) | > 100 µM (inactive) | > 100 µM (inactive) |  | > 100 µM (inactive) | > 100 µM (inactive) | > 100 µM (inactive) | > 100 µM (inactive) | > 100 µM (inactive) |  | > 100 µM (inactive) | > 100 µM (inactive) | > 100 µM (inactive) | 57.8 µM (inactive) | > 100 µM (inactive) | > 100 µM (inactive) | > 100 µM (inactive) |
| CSc1c(C#N)c(=O)n(N)c2[nH]nc(C)c12 |  | > 100 µM (inactive) | > 100 µM (inactive) | > 100 µM (inactive) | > 100 µM (inactive) | > 100 µM (inactive) | > 100 µM (inactive) | > 100 µM (inactive) | > 100 µM (inactive) | > 100 µM (inactive) | 91.6 µM (inactive) | > 100 µM (inactive) | > 100 µM (inactive) | > 100 µM (inactive) | > 100 µM (inactive) |  | > 100 µM (inactive) |  |
| Cc1ccc(-c2n[nH]c(=O)n2N2C(=O)c3ccccc3C2=O)cc1 | > 100 µM (inactive) | > 100 µM (inactive) | > 100 µM (inactive) | > 100 µM (inactive) | > 100 µM (inactive) | > 100 µM (inactive) | > 100 µM (inactive) | > 100 µM (inactive) | > 100 µM (inactive) | > 100 µM (inactive) |  |  | > 100 µM (inactive) | > 100 µM (inactive) | 68.9 µM (inactive) | > 100 µM (inactive) | > 100 µM (inactive) |  |
| COC(=O)C1=C(C(=O)OC)SC2(S1)C1=C(CCC1)SC(C(=O)OC)=C2C(=O)OC | 15.6 µM (inactive) | 15.5 µM (inactive) | 14.5 µM (inactive) | 18.8 µM (inactive) |  | 15.7 µM (inactive) | 4.62 µM (inactive) | 16.5 µM (inactive) | 18.8 µM (inactive) | 18.8 µM (inactive) | 9.12 µM (inactive) | 2.17 µM (inactive) | 16 µM (inactive) | 2.99 µM (inactive) | 9.25 µM (inactive) | 12.9 µM (inactive) |  | 10.2 µM (inactive) |
| CC1C=CN(N(C)C)C2=C1C(=O)c1cnccc1C2=O (configuration not stated) | 0.676 µM (active) | 0.975 µM (active) | 0.133 µM (active) |  | 0.195 µM (active) | 0.212 µM (active) | 0.408 µM (active) | 0.331 µM (active) | 0.927 µM (active) | 1.63 µM (inactive) | 1.29 µM (inactive) | 2.09 µM (inactive) | 0.355 µM (active) | 0.17 µM (active) | 1.83 µM (inactive) | 0.244 µM (active) | 0.0156 µM (active) | 2.07 µM (inactive) |
| O=C(O)CC(O)(C(=O)O)C(O)C(=O)O (configuration not stated) | > 1000 µM (inactive) | > 1000 µM (inactive) | 617 µM (inactive) | > 1000 µM (inactive) | > 1000 µM (inactive) | > 1000 µM (inactive) | > 1000 µM (inactive) | > 1000 µM (inactive) | > 1000 µM (inactive) | > 1000 µM (inactive) |  | > 1000 µM (inactive) | > 1000 µM (inactive) | > 1000 µM (inactive) | > 1000 µM (inactive) | > 1000 µM (inactive) |  |  |
| c1ccc2c(c1)[nH]c1c2cc[n+]2cc3c(cc12)CCCC3 | 3.18 µM (inactive) | 2.93 µM (inactive) | 1.57 µM (inactive) | 2 µM (inactive) | 2.28 µM (inactive) | 4.09 µM (inactive) |  | 6.93 µM (inactive) | 44.6 µM (inactive) | 1.63 µM (inactive) | 5.38 µM (inactive) |  | 2.76 µM (inactive) | 1.79 µM (inactive) | 1.66 µM (inactive) | 7.18 µM (inactive) | 1.75 µM (inactive) | 3.25 µM (inactive) |
| CC(CC(C)[C@H]1CCC2[C@H]3C(CC[C@@]21C)[C@@]1(C)CCC(O)C[C@H]1C[C@@H]3O)C(=O)O (some centres not stated) |  | > 100 µM (inactive) | > 100 µM (inactive) | > 100 µM (inactive) | > 100 µM (inactive) | > 100 µM (inactive) | > 100 µM (inactive) | > 100 µM (inactive) | > 100 µM (inactive) | > 100 µM (inactive) | > 100 µM (inactive) | > 100 µM (inactive) | > 100 µM (inactive) | > 100 µM (inactive) | > 100 µM (inactive) | > 100 µM (inactive) | > 100 µM (inactive) | > 100 µM (inactive) |
| O=C(OCCN=C1c2ccccc2CCc2ccccc21)c1ccccc1 | > 100 µM (inactive) | > 100 µM (inactive) | > 100 µM (inactive) | > 100 µM (inactive) | > 100 µM (inactive) | > 100 µM (inactive) | > 100 µM (inactive) | > 100 µM (inactive) | > 100 µM (inactive) | > 100 µM (inactive) |  | > 100 µM (inactive) | > 100 µM (inactive) |  | > 100 µM (inactive) | > 100 µM (inactive) | 18 µM (inactive) | > 100 µM (inactive) |
| COC1OC(C(C)O)C2OC(C)(C)OC12 (configuration not stated) | > 100 µM (inactive) | > 100 µM (inactive) | > 100 µM (inactive) | > 100 µM (inactive) | > 100 µM (inactive) | > 100 µM (inactive) |  | > 100 µM (inactive) | > 100 µM (inactive) | > 100 µM (inactive) | > 100 µM (inactive) | > 100 µM (inactive) | > 100 µM (inactive) | > 100 µM (inactive) | > 100 µM (inactive) | > 100 µM (inactive) | > 100 µM (inactive) |  |
| COc1ccc(-c2c(C(C)=O)c(C)n(C3OC(CO)C(O)C(O)C3O)c(=S)c2C#N)cc1 (configuration not stated) | 72.9 µM (inactive) | > 100 µM (inactive) | 71.6 µM (inactive) | > 100 µM (inactive) |  | > 100 µM (inactive) | 73.1 µM (inactive) | > 100 µM (inactive) | 93.5 µM (inactive) |  |  | 38.3 µM (inactive) | > 100 µM (inactive) |  | 34.6 µM (inactive) | > 100 µM (inactive) | 48.8 µM (inactive) |  |
| CCOP(=O)(OCC)C(C)(CC)N/C(N)=N/C#N (configuration not stated) | > 100 µM (inactive) | > 100 µM (inactive) | > 100 µM (inactive) | > 100 µM (inactive) | > 100 µM (inactive) | > 100 µM (inactive) | > 100 µM (inactive) | > 100 µM (inactive) | > 100 µM (inactive) | > 100 µM (inactive) |  | > 100 µM (inactive) | > 100 µM (inactive) |  | > 100 µM (inactive) | > 100 µM (inactive) | > 100 µM (inactive) |  |
| CN(C)/C=C/c1nnnn1-c1ccc(I)cc1 | 25.8 µM (inactive) | 17.5 µM (inactive) | 22.4 µM (inactive) | 16.6 µM (inactive) | 35.1 µM (inactive) | 27 µM (inactive) | 28 µM (inactive) | > 100 µM (inactive) | 23.8 µM (inactive) |  | 40.8 µM (inactive) | 10.6 µM (inactive) | 22.8 µM (inactive) | 25.5 µM (inactive) | 9.44 µM (inactive) | 15.6 µM (inactive) | 16.4 µM (inactive) | 14.2 µM (inactive) |
| O=C(O)CNCCc1ccccc1 | > 100 µM (inactive) | > 100 µM (inactive) | > 100 µM (inactive) | > 100 µM (inactive) | > 100 µM (inactive) |  | > 100 µM (inactive) | > 100 µM (inactive) | > 100 µM (inactive) | > 100 µM (inactive) | > 100 µM (inactive) | > 100 µM (inactive) | > 100 µM (inactive) | > 100 µM (inactive) | > 100 µM (inactive) | > 100 µM (inactive) | > 100 µM (inactive) | > 100 µM (inactive) |
